Test results: patent US4127661A, “Piperazine alkanols” (Serdex - Societe d'Etudes, de Recherches, de Diffusion et …, priority 1976, dated 1978)
Counter-ions that a name gives are not always drawn.

Key:
femoral artery [1] = experiment: Peripheral action of the compounds of Examples 1, 2 and 4 (femoral rate of flow, local peripheral resistance, blood pressure), 2.5 mg/kg; assay type: in vivo, dogs; settings: for Femoral rate of flow: increase; for Local peripheral resistance: at 30mn, decrease
Procedure: (§1) The tests were conducted with pentobarbital anesthetized dogs (35 mg/kg/i.v.) under artificial respiration with pentobarbital infusion (5 mg/kg/hr).
(§2) The carotid arterial pressure was recorded by means of an electromagnetic capsule connected to the carotid artery. From said determination were calculated the mean blood pressure, the systolic pressure, the diastolic pressure and the pulse pressure.
(§3) The femoral rate of flow was recorded by means of an electromagnetic sensor placed around the femoral artery. Local peripheral resistance was calculated from said parameters.

femoral artery [2] = experiment: Vasodilator action in anesthetized dogs (femoral rate of flow, local peripheral resistance), 5 mg/kg i.v.; assay type: in vivo; settings: 5 mg/kg intravenously
Procedure: as §1, §2, §3
The compounds of the formula (I) were administered intravenously at a dosage of 5 mg/kg. Two tests were conducted with each compound.

Acute toxicity, oral = settings: rat, in vivo, single administration, fasted male Sprague Dawley rats, after 14 days, p = 0.05, Litchfield and Wilcoxon
Procedure: Acute toxicity was studied orally in male Sprague Dawley rats kept fasting 24 hours prior to the test, distributed in homogeneous groups of 10 animals each.
The animals were given a single administration of the test materials and were kept under observation during 14 days.
The LD50 were determined after 14 days at a probability threshold of p = 0.05, according to the method of Litchfield and Wilcoxon.

Row | SMILES | Femoral rate of flow (femoral artery [1]; 1 hour) [%] | Local peripheral resistance (femoral artery [1]) [%] | assessment among the compounds tested for peripheral vasodilator activity (femoral artery [2]) | LD50 at 336 h (Acute toxicity, oral) [mg/kg] | Femoral rate of flow (femoral artery [1]; 30mn) [%] | Femoral rate of flow (femoral artery [1]; on injection (injec.)) [%]
1 | CCC(O)C(c1ccccc1)N1CCN(CCOc2ccccc2C)CC1 (stereo not shown) [Example 4, 1-(N-[2-(2-methyl-1-phenoxy)-1-ethyl]piperazino)-1-phenyl-2-butanol dihydrochloride] | > 30 | 30 | particularly valuable | 700 | – | –
2 | CC(O)C(c1ccccc1)N1CCN(CCOc2ccccc2)CC1 (stereo not shown) [Example 2, 1-[N-(2-phenoxy-1-ethyl)piperazino]-1-phenyl-2-propanol] | – | 15 | particularly valuable | 250 | > 15 | > 100
3 | CC(=O)C(c1ccccc1)N1CCN(CCOc2ccccc2)CC1 (stereo not shown) [Example 1, 1-[N-(2-phenoxy-1-ethyl)piperazino]-1-phenylacetone] | > 25 | 20 | particularly valuable | 800 | – | –
